In patent publication US20220033448A1, “METHODS FOR AGGREGATION OF PROTEINS” (priority 2011, published 2022):
Read-outs that look alike come from different tables or passages of the source. No end group written: not given here.

Key:
S. haemolyticus = assay: MIC, microbroth dilution; conditions: planktonic, 18 hours
Description: (§1) Bacteria were grown in a shaking incubator at 37° C. and 160rpm in 50 ml BHI , using individual colonies retrieved from a fresh overnight TSA-sheep blood plate. The cultures were grown to a density of approximately 1×10^8cells/ml and then diluted to 5×10^5 cells/ml in CAMHB (Mc Farland 0.5). Each well contained 100p.I (50p.I of peptide containing MHB plus 50 μl inoculum). The final cell density was 1×10^5 to 5×10^5/ml. After addition of the cell suspension, plates were incubated at 37° C. for 18 to 24 hours. The optical density at 590 nm (OD590) of each well was measured after 5 seconds of shaking the plate using Perkin Elmer spectrophotometer (1420 Multilabel Counter Vicotr 3). […] Each well, where no growth was observed, was also plated on TSA-sheep blood agar plates, incubated at 37° C. overnight and visually inspected.

S. aureus = format: cell-based, Staphylococcus aureus
[1] = tested on: Micrococcus luteus ATCC 9341; assay: MIC, microbroth dilution; conditions: planktonic, 18 hours
Description: as §1

E. coli = E. coli ATCC25922; planktonic bacteria; read-out after 18 hours of growth
Description: as §1
(§2) A microbroth dilution method was used with twofold serial dilutions in CAMHB (according to EMEA guidelines) was used for screening of peptide activity, with concentrations ranging from 0.3 μg/mIto 200 μg/ml.

S. hominis = conditions: S. hominis; planktonic; 18 hours
Description: as §1, §2

[2] = tested on: Human embryonic kidney (HEK293T) cells; conditions: 50 μg/ml (C30: 50 μg/ml or beyond)
[3] = tested on: Listeria monocytogenes ATCC 11994; assay: MIC, microbroth dilution; conditions: planktonic, 18 hours
Description: as §1

S. epidermidis = conditions: planktonic, 18 hours
human erythrocytes = format: cell-based
Text: The detergent Tween was used as a positive control, causing 100% lysis of RBCs.

Nocardia asteroides = Nocardia asteroides ATCC 3308; planktonic; 18 hours
Description: as §1, §2

Candida albicans SC5314 [4] = assay: C. albicans SC5314 adhesion on 96-well polystyrene plates (XTT reduction assay); format: cell-based; conditions: 90 min adhesion at 37° C.
Description: In a next step, lower concentrations of peptide F9 (50 μM, 10 μM and 2.5 μM) were also tested. First, we elucidated the effect of peptide F9 during the period of adhesion (90 min at 37° C.). Then, we tested its effect on further biofilm development, by changing the medium with fresh RPMI1640-MOPS, in the absence of peptide for 48 h. Both assays were performed in 96-well polystyrene plates and quantified by the XTT reduction assay (see material and methods section).
In vitro C. albicans biofilm was studied on three different types of biomaterials, namely flat bottom 96-well polystyrene plate (Greiner Bio-One, Germany), silicone (CS Hyde, USA) and polyurethane triple lumen intravenous catheters (2.4mm diameter) (Arrow International Reading, USA). […] After that, the biofilms were washed twice with 1×PBS and quantified.
The metabolic activity of Candida cells within in vitro biofilms was studied using the XTT reduction assay. This method is based on colorimetric change of a specific substrate—XTT (2,3-bis(2-methoxy-4-nitro-5-sulpho-phenyl)-2H-tetrazolium-5-carboxanilide) (Sigma, USA) which is reduced to XTT formazan by mitochondrial dehydrogenases of metabolic active cells measured by spectrophotometer at 490 nm. […] The intensity of colorimetric change was measured by spectrophotometer (Spectra max Plus 384) at 490 nm. […]

Candida albicans SC5314 [5] = assay: C. albicans adhesion on polyurethane catheters (CFU counting); format: cell-based; conditions: 50 μM; adhesion 90 min at 37° C.; control 3.06 ±0.39
Description: In vitro C. albicans biofilm was studied on three different types of biomaterials, namely flat bottom 96-well polystyrene plate (Greiner Bio-One, Germany), silicone (CS Hyde, USA) and polyurethane triple lumen intravenous catheters (2.4mm diameter) (Arrow International Reading, USA). Prior the biofilm set up, silicone was cut into small square pieces (1 cm×1 cm) and polyurethane into 1 cm pieces. Silicone or polyurethane devices were incubated in 99% FBS (F7524, Sigma) overnight at 37° C. Cells were washed and resuspended in 1 x phosphate buffered saline (PBS), pH 7.4. Candida suspension of 1×10^7 cells/ml or 5.10^4 cells/ml was prepared in RPMI1640-MOPS medium, Ssuccinate, pH 6.5 or in YNB medium, 4% D-glucose. In total, 1 ml of the cell suspension was added to the silicone discs or polyurethane catheters placed in 24 well plate and 100 μl of cell suspension was inoculated into 96-well polystyrene plate. The attachment of the cells to a substrate was achieved by incubation at 37° C., for 90 min under static conditions (period of adhesion). […] After that, the biofilms were washed twice with 1×PBS and quantified.
The amount of fungal biofilm biomass formed inside the catheter lumen of in vitro and in vivo explanted catheters was determined by colony forming units (CFU). […] CFUs were counted after two days at 37° C.

RILLGLIRRGSRILLGLIRR [C30]
MIC (S. haemolyticus): S. haemolyticus: 1.5 μg/ml | onset of resistance compared with common antibiotics (S. aureus; S. aureus ATCC, broth microdilution, 4 duplicates): much slower onset of resistance than Ampicillin | fold elevation of the MIC (S. aureus; S. aureus clinical strain MRSA 204, passaged at half the MIC over 15 days): 2 fold | MIC [1]: Micrococcus luteus ATCC 9341: 3 μg/ml | MIC (E. coli): E. coli ATCC25922: 100 μg/ml | MIC (S. hominis): S. hominis: 3 μg/ml | LDH release [2]: higher than 50% | MIC [3]: Listeria monocytogenes ATCC 11994: 1.5 μg/ml | MIC (S. epidermidis; S101): S101: 1.5 μg/ml | MIC (S. epidermidis; S103): S103: 1.5 μg/ml | MIC (S. epidermidis; S104): S104: 1.5 μg/ml | MIC (S. epidermidis; S109): S109: 3 μg/ml | MIC (S. epidermidis; S. epidermidis ATCC 13228): S. epidermidis ATCC 13228: 1.5 μg/ml | HD50 (concentration at which 50% of red blood cells are lysed) (human erythrocytes): 25 to 50 µg/mL | MIC (Nocardia asteroides): Nocardia asteroides ATCC 3308: 1.5 μg/ml

RKLLFNLGSRNGIVIVATTR [F9]
adhesion of C. albicans SC5314 on polystyrene (Candida albicans SC5314 [4]; 2.5 μM peptide): dramatically decreased adhesion properties of Candida cells | adhesion of C. albicans SC5314 on polystyrene (Candida albicans SC5314 [4]; 50 μM and 10 μM peptide): almost completely abolished Candida attachment | attachment to polyurethane devices (Candida albicans SC5314 [5]): 2.18 ±0.12 logio CFU/catheter fragment
